According to patent publication US20020049257A1, “Antibacterial composition” (priority 2000, published 2002):

Legend:
[1] = system: Ax 15 Corynebacterium jeikeium; assay: MIC microtiter plate test, axilla strain Ax 15; type: cell-based; conditions: for Bacteriostatic activity Corynebact. Ax 15: at least 80% reduction in growth during 24 hours, Table 7; for Minimal inhibitory concentration (MIC) Ax 15: at least 80% growth inhibition, 24 h, 36° C., Table 1
From the text: (§1) The different bacterial strains had been isolated from the human axilla by current microbiological practice. They were taxonomically identified by cell morphology, gram-reaction, and biochemical tests included in the Api coryne test kit (BioMerieux, France). Strain Staphylococcus epidermidis Ax25 was identified by fatty acid methyl ester analysis (FAME; German type strain collection DSMZ, Germany). The strains were maintained on Tryptic soy broth plates, this standard medium being amended with 5 g per Liter of Tween 80 and 1 g of Soybean lecithin. Plates were incubated at 36° C. for a period 48 hours. The bacteria were then swabbed from the plates and suspended in 4 ml of Muller-Hinton broth amended with 100 mg of Tween 80 per Liter (MH-Tween) and incubated again at 360 C for 16 hours. Following incubation the bacterial suspensions were diluted in MH-Tween to obtain a final cell density of 10^6 colony forming units per ml. For each fragrance material four microtiter plates were used in the example, each microtiter plate having 8 rows, A-H, and 12 columns, 1-12. To each column a diluted suspension of a different test organism was distributed, 100 μl per well. 1% stock solutions of the fragrance materials were then prepared in MH-Tween broth. The fragrance material was dispersed by ultrasonication into the aqueous medium to obtain a homogenous emulsion. 100 μl per well of this emulsion was then added to the first row of the microtiter plates already containing the target organisms. Serial dilution series were then prepared starting at row A and continuing until row G, each time removing 100 μl from a well and transferring it to the next well. In this way fragrance concentrations of 0.5%, 0.25%, 0.125%, 0.0625%, 0.03125%, 0.0156%, and 0.0078% were tested for their antibacterial efficacy. The reference compound Triclosan was tested at 16-fold lower concentrations. The plates were covered with plastic films and incubated for 24 h at 36° C. with shaking at 250 rpm. The turbidity developing in the microtiter plates was then examined after 24 h to determine microbial growth. The minimal concentration of fragrance inhibiting the growth of an organism by at least 80% was determined as the minimal inhibitory concentration (MIC).
(§2) Ax 25 was identified as Staphylococcus epidermidis by FAME analysis. Identification with the Api Coryne test kit yielded the following species assignments for the remainder of the strains: Ax 26 Corynebacterium sp.; Ax 3 Corynebacterium bovis; Ax 7 Corynebacterium group G; Ax 10 Corynebacterium jeikeium; Ax 11 Corynebacterium jeikeium; Ax 12 Corynebacteriurn jeikeium; Ax 15 Corynebacterium jeikeium; Ax 20 Corynebacterium striatum/amycolatum; and Ax 19 Corynebacterium jeikeium. The strains were isolated from the axilla of 8 human volunteers. Based on biochemical tests and colony morphology all strains were distinct from each other, even the several strains all belonging to Corynebacterium jeikelurn.

[2] = system: Ax 26 Corynebacterium sp.; assay: MIC microtiter plate test, axilla strain Ax 26; type: cell-based; conditions: for Bacteriostatic activity Corynebact. Ax 26: at least 80% reduction in growth during 24 hours, Table 7; for Minimal inhibitory concentration (MIC) Ax 26: at least 80% growth inhibition, 24 h, 36° C., Table 1
From the text: as §1
as §2, with “Based on biochemical tests and colony morphology all strains were distinct from each other, even the several strains all belonging to Corynebacterium jeikelurn.” left out

Corynebacteria = assay: MIC against Corynebacteria (average / overall); type: cell-based, Corynebacterium; conditions: malodor forming axilla bacteria
From the text: (§3) The different bacterial strains had been isolated from the human axilla by current microbiological practice. They were taxonomically identified by cell morphology, gram-reaction, and biochemical tests included in the Api coryne test kit (BioMerieux, France). Strain Staphylococcus epidermidis Ax25 was identified by fatty acid methyl ester analysis (FAME; German type strain collection DSMZ, Germany). The strains were maintained on Tryptic soy broth plates, this standard medium being amended with 5 g per Liter of Tween 80 and 1 g of Soybean lecithin. Plates were incubated at 36° C. for a period 48 hours. The bacteria were then swabbed from the plates and suspended in 4 ml of Muller-Hinton broth amended with 100 mg of Tween 80 per Liter (MH-Tween) and incubated again at 360 C for 16 hours. Following incubation the bacterial suspensions were diluted in MH-Tween to obtain a final cell density of 10^6 colony forming units per ml. For each fragrance material four microtiter plates were used in the example, each microtiter plate having 8 rows, A-H, and 12 columns, 1-12. […]
Since sandela is known to be a mixture of different reaction products, commercial sandela was subjected to a distillation process. […] The different fractions were evaluated for their antimicrobial activity (Table 6) with the method described in example 1. […]

[3] = system: Ax 3 Corynebacterium bovis; assay: MIC microtiter plate test, axilla strain Ax 3; type: cell-based; conditions: at least 80% growth inhibition, 24 h, 36° C.; Table 1
From the text: as §1, with “The minimal concentration of fragrance inhibiting the growth of an organism by at least 80% was determined as the minimal inhibitory concentration (MIC).” left out

[4] = system: Ax 7 Corynebacterium group G; assay: MIC microtiter plate test, axilla strain Ax 7; type: cell-based; conditions: for Minimal inhibitory concentration (MIC) Ax 7: at least 80% growth inhibition, 24 h, 36° C., Table 1
From the text: as §1, §2

[5] = system: Ax 20 Corynebacterium striatum/amycolatum; assay: MIC microtiter plate test, axilla strain Ax 20; type: cell-based; conditions: at least 80% growth inhibition, 24 h, 36° C.; Table 1
From the text: as §1, with “The minimal concentration of fragrance inhibiting the growth of an organism by at least 80% was determined as the minimal inhibitory concentration (MIC).” left out

[6] = system: Ax 12 Corynebacteriurn jeikeium; assay: MIC microtiter plate test, axilla strain Ax 12; type: cell-based, Corynebacterium jeikeium; conditions: at least 80% growth inhibition, 24 h, 36° C.; Table 1
From the text: as §1, with “The minimal concentration of fragrance inhibiting the growth of an organism by at least 80% was determined as the minimal inhibitory concentration (MIC).” left out

[7] = system: Ax 11 Corynebacterium jeikeium; assay: MIC microtiter plate test, axilla strain Ax 11; type: cell-based; conditions: at least 80% growth inhibition, 24 h, 36° C.; Table 1
From the text: as §1, with “The minimal concentration of fragrance inhibiting the growth of an organism by at least 80% was determined as the minimal inhibitory concentration (MIC).” left out

[8] = system: Ax 10 Corynebacterium jeikeium; assay: MIC microtiter plate test, axilla strain Ax 10; type: cell-based; conditions: at least 80% growth inhibition, 24 h, 36° C.; Table 1
From the text: as §3, with “1-12. To each column a diluted suspension of a different test organism was distributed, 100 μl per well. 1% stock solutions of the fragrance materials were then prepared in MH-Tween broth. The fragrance material was dispersed by ultrasonication into the aqueous medium to obtain a homogenous emulsion.” for “1-12.”

[9] = system: Ax 19 Corynebacterium jeikeium; assay: MIC microtiter plate test, axilla strain Ax 19; type: cell-based; conditions: at least 80% growth inhibition, 24 h, 36° C.; Table 1
From the text: as §3, with “1-12. To each column a diluted suspension of a different test organism was distributed, 100 μl per well. 1% stock solutions of the fragrance materials were then prepared in MH-Tween broth. The fragrance material was dispersed by ultrasonication into the aqueous medium to obtain a homogenous emulsion.” for “1-12.”

[10] = system: Brevibacterium epidermidis DSMZ 9586; assay: MIC against Brevibacterium epidermidis; type: cell-based; conditions: DSMZ 9586, method of Example 1
From the text: as §1
A selection of perfume compounds were tested against Brevibacterium epidermidis DSMZ 9586 (German Collection of Microorganisms and Cell Cultures) with the method described in Example 1.

[11] = system: Propionibacterium acnes DSMZ1897; assay: MIC against Propionibacterium acnes, anaerobic, 72 hours; type: cell-based; conditions: DSMZ1897, anaerobic conditions

COC1CC(C2CC3CC2C(C)C3(C)C)CCC1O (single isomer, unassigned) [Peak A]
Bacteriostatic activity Corynebact. Ax 15 [1]: 0.0048 percent (w/v) | Bacteriostatic activity Corynebact. Ax 26 [2]: 0.0028 percent (w/v)

COC1CC(C2CC3CC2C(C)C3(C)C)CCC1O (single isomer, unassigned) [Peak B]
Bacteriostatic activity Corynebact. Ax 15 [1]: 0.0028 percent (w/v) | Bacteriostatic activity Corynebact. Ax 26 [2]: 0.0016 percent (w/v)

COC1CC(C2CC3CC2C(C)C3(C)C)CCC1O (stereo not drawn) [2-methoxy-4-(5,5,6-trimethylbicyclo[2.2.1]hept-2-yl)cyclohexan-1-ol]
activity against Corynebacteria (in words) (Corynebacteria): highest activity

COC1CCC(C2CC3CC2C(C)C3(C)C)CC1O (stereo not drawn) [2-methoxy-5-(5,5,6-trimethyl-bicyclo[2.2.1]hept-2-yl)cyclohexan-1-ol]
activity against Corynebacteria (in words) (Corynebacteria): highest activity

CC1=CCC(/C=C\C(C)C(C)O)C1(C)C (stereo not drawn) [Ebanol]
Minimal inhibitory concentration (MIC) Ax 3 [3]: 0.1250 % weight/ volume | Minimal inhibitory concentration (MIC) Ax 7 [4]: 0.1250 % weight/ volume | Minimal inhibitory concentration (MIC) Ax 20 [5]: 0.1250 % weight/ volume | Minimal inhibitory concentration (MIC) Ax 12 [6]: 0.2500 % weight/ volume | Minimal inhibitory concentration (MIC) Ax 11 [7]: 0.2500 % weight/ volume | Minimal inhibitory concentration (MIC) Ax 15 [1]: 0.2500 % weight/ volume | Minimal inhibitory concentration (MIC) Ax 26 [2]: 0.1250 % weight/ volume

CC(C)=CCCC(C)=CCCC(C)=CCO [Farnesol, 3,7,11-trimethyl-2,6,10-dodecatrien-1-ol]
Minimal inhibitory concentration (MIC) Ax 3 [3]: 0.0156 % weight/ volume | Minimal inhibitory concentration (MIC) Ax 10 [8]: 0.0078 % weight/ volume | Minimal inhibitory concentration (MIC) Ax 20 [5]: 0.0137 % weight/ volume | Minimal inhibitory concentration (MIC) Ax 12 [6]: 0.0137 % weight/ volume | Minimal inhibitory concentration (MIC) Ax 15 [1]: 0.0156 % weight/ volume | Bacteriostatic activity Corynebact. Ax 15 [1]: 0.0156 percent (w/v) | Minimal inhibitory concentration (MIC) Ax 19 [9]: 0.0156 % weight/ volume | MIC for Brevibacterium epidermidis [10]: 0.0078 % w/v | MIC for Propionibacterium acnes [11]: 0.0078 % w/v

CCC(=CCC1CC=C(C)C1(C)C)CO (stereo not drawn) [Radjanol]
Minimal inhibitory concentration (MIC) Ax 7 [4]: 0.0625 % weight/ volume | MIC for Brevibacterium epidermidis [10]: 0.03125 % w/v

CC1=CCC(CCC(C)C(C)O)C1(C)C (stereo not drawn) [Sandalore]
Minimal inhibitory concentration (MIC) Ax 3 [3]: 0.1250 % weight/ volume | Minimal inhibitory concentration (MIC) Ax 10 [8]: 0.1250 % weight/ volume | Minimal inhibitory concentration (MIC) Ax 7 [4]: 0.1250 % weight/ volume | Minimal inhibitory concentration (MIC) Ax 20 [5]: 0.1250 % weight/ volume | Minimal inhibitory concentration (MIC) Ax 12 [6]: 0.1250 % weight/ volume | Minimal inhibitory concentration (MIC) Ax 11 [7]: 0.1250 % weight/ volume | Minimal inhibitory concentration (MIC) Ax 26 [2]: 0.1250 % weight/ volume | MIC for Brevibacterium epidermidis [10]: 0.0937 % w/v | MIC for Propionibacterium acnes [11]: 0.25 % w/v

Oc1cc(Cl)ccc1Oc1ccc(Cl)cc1Cl [Triclosan, 2,4,4′-trichloro-2′-hydroxy-diphenyl-ether]
Minimal inhibitory concentration (MIC) Ax 7 [4]: 0.0029 % weight/ volume | Bacteriostatic activity Corynebact. Ax 7 ([4]; at least 80% reduction in growth during 24 hours, Table 7): 0.0025 percent (w/v) | Minimal inhibitory concentration (MIC) Ax 11 [7]: 0.0029 % weight/ volume | Minimal inhibitory concentration (MIC) Ax 15 [1]: 0.0029 % weight/ volume | MIC for Brevibacterium epidermidis [10]: 0.003125 % w/v | MIC for Propionibacterium acnes [11]: 0.00039 % w/v
